What was measured:
Mtb = test: microbe, parasite or virus in culture; type: cell-based, Mycobacterium tuberculosis; settings: for inhibition of ΔRv1625c mutant: ΔRv1625c strain, cholesterol media
Rv1625c = Rv1625c (Mycobacterium tuberculosis, UniProt P9WQ35); test: cAMP production in cya- E. coli expressing Rv1625c; type: cell-based; settings: cya- E. coli with Rv1625c expression plasmid, 18 hours
Rv1625c, sequence (P9WQ35 whole entry, looked up): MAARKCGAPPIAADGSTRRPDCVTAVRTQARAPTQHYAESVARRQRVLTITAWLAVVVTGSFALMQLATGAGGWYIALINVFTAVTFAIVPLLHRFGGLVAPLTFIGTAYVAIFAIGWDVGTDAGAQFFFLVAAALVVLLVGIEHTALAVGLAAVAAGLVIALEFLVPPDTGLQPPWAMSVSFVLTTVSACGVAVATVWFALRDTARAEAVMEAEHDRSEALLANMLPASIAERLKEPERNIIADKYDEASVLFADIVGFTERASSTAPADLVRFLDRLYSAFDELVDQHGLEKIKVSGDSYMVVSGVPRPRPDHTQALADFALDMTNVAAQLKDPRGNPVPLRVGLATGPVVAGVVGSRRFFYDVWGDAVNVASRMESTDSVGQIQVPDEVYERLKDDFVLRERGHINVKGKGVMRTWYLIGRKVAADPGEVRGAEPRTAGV

Cc1nonc1CC(=O)N1CCC(n2nnc(-c3ccc(F)cc3)n2)CC1 [V-59, 1-(4-(5-(4-fluorophenyl)-2H-tetrazol-2-yl)piperidin-1-yl)-2-(4-methyl-1,2,5-oxadiazol-3-yl)ethan-1-one]
susceptibility of 2xrv1625c (rv1625c overexpression) strain relative to WT (Mtb; 7H12+cholesterol media): ~ 15 fold | inhibition of ΔRv1625c mutant (Mtb): refractory | cAMP levels (Rv1625c): increased cAMP levels

Cn1ncnc1CC(=O)N1CCC(c2nc(-c3ccc(Cl)c(Cl)c3)no2)CC1 [mCLB073, 1-(4-(3-(3,4-dichlorophenyl)-1,2,4-oxadiazol-5-yl)-1-piperidinyl)-2-(2-methyl-2H-1,2,4-triazol-3-yl)-1-ethanone]
inhibition of ΔRv1625c mutant (Mtb): refractory
